Reference: patent publication US8003375B2, “Qualitative differential screening” (ExonHit Therapeutics S.A., priority 1998, dated 2011)

Assays:
FASR isoforms = assay: RT-PCR of FASR isoforms in treated HepG2 cells; format: cell-based, human; settings: 4 h, RT-PCR (FIG. 19)
Description: (§1) HepG2 cells were thus treated with these three concentrations of these three compounds for 4 h in the case of ethanol and camptothecin and for 18 h in the case of PMA. […] These initial strands served as templates for PCR amplification reactions (94° C. 1 min, 55° C. 1 min, 72° C. 1 min, 30 cycles) by means of the following oligonucleotide primers: [table] These primers correspond to the regions common to certain FASR isoforms and should amplify a 478 base pair fragment for wild type form FasR, 452 base pairs for isoform Δ8 and 415 for isoform ΔTM.

[1] = test system: MACH-α (Caspase-8) isoforms; assay: RT-PCR of MACH-α isoforms in treated HepG2 cells; format: cell-based, human; settings: camptothecin 1 μg/ml, 4 h, RT-PCR (FIG. 19)
Description: HepG2 cells were thus treated with these three concentrations of these three compounds for 4 h in the case of ethanol and camptothecin and for 18 h in the case of PMA. Messenger RNAs were purified on Dynal-Oligo-(dT) beads starting from total RNAs purified with the Rneasy kit (Quiagen). cDNA was synthesized from these messenger RNAs using Superscript reverse transcriptase (Life Technologies) and random hexamers as primers
These initial strands served as templates for PCR amplification reactions (94° C. 1 min, 55° C. 1 min, 72° C. 1 min, 30 cycles) by means of the following oligonucleotide primers: […]
These primers correspond to the regions common to the different described isoforms of MACH-α (1, 2 and 3, respectively amplifying 595, 550 and 343 base pairs). MACH-α (Caspase-8) is a protease involved in programmed cell death (Boldin et al., (1996), Cell, 85: 803-815).

bcl-X isoforms = assay: RT-PCR of BCL-X isoforms in treated HepG2 cells; format: cell-based, human; settings: 4 h, RT-PCR (FIG. 19)
Description: as §1, with “the different described” for “certain FASR”, “isoforms of bcl-X (bcl-XI, bcl-Xs, BCL-Xβ) (Boise et al., (1993), Cell 74: 597-608; U72398 (Genbank))” for “isoforms”, “single 204” for “478”, “these three isoforms.” for “wild type form FasR, 452 base pairs for isoform Δ8 and 415 for isoform ΔTM.”

[2] = Cytotoxicity tests (trypan blue, MTT) and apoptosis test (Cell Death ELISA, DNA fragmentation) on HepG2 cells; settings: human
Description: (§2) The effects of toxic compounds on RNA splicing regulation defects were tested as follows. HepG2 hepatocyte cells were treated with different doses of three toxic compounds (ethanol, camptothecin, PMA (phorbol 12-myristate 13-acetate)). Two cytotoxicity tests (trypan blue, MTT) were performed at different time points: 4 h and 18 h for ethanol; 4 h and 18 h for camptothecin; 18 h and 40 h for PMA.
(§3) Trypan blue is a dye that can be incorporated by […] cells. […] The experimental points are determined in triplicate.
(§4) The MTT test is a colorimetric test measuring the capacity of living cells to convert soluble tetrazolium salts (MTT) into an insoluble formazan precipitate. These dark blue formazan crystals can be dissolved and their concentration determined by measuring absorbance at 550 nm. Thus, after overnight seeding of 24-well dishes with 150,000 cells, followed by treatment of the cells with the toxic compounds, 50 μl of MTT (Sigma) are added (at a concentration of 5 mg/ml in PBS). The formazan crystal formation reaction is carried out for 5 h in a CO2 incubator (37° C., 5% CO2, 95% humidity). After addition of 500 μl of solubilization solution (0.1 N HCl in isopropanol-Triton X-100 (10%)), the crystals are dissolved with stirring and their absorbance is measured at 550 to 660 nm. Determinations are done in triplicate with suitable controls (viability, cell death, blanks).
(§5) A test of apoptosis or programmed cell death was also performed by measuring DNA fragmentation with an anti-histone antibody and ELISA. The Cell Death ELISA Plus from Roche was used.

HepG2 cells [3] = assay: as above
Description: as §2, §3, §4, §5

HepG2 cells [4] = settings: 0.1 M ethanol for 18 hours (FIG. 9)
Description: A more complex situation was examined. […] RNAs were extracted from cells that were or were not subjected to treatment. The aforementioned DATAS variant (preparation of biotinylated ss cDNA, cross hybridizations in liquid phase, application of a magnetic field to separate the species, RNase H digestion) was effected with untreated cells in the reference condition (or condition A) and with treated cells in the test condition (or condition B) (FIG. 9). As the extracted RNAs were not radiolabeled, the RNAs generated by RNase H digestion were visualized by carrying out an exchange reaction to replace the RNA 5′ phosphate with a labeled phosphate, by means of T4 polynucleotide kinase and gamma-P^32ATP. These labeled products were then loaded on an acrylamide/urea gel and analyzed by exposure using an Instant Imager (Packard Instruments).

For CC[C@@]1(O)C(=O)OCc2c1cc1n(c2=O)Cc2cc3ccccc3nc2-1 [camptothecin], the “fas receptor isoform pattern” value (FASR isoforms; camptothecin 1 μg/ml) was “induces a decrease in the wild type form of the fas receptor, replaced by expression of a shorter isoform which may correspond to Fas ΔTM”, the “expression of isoform MACH-α1” value [1] was “decrease” and the “expression of isoform MACH-α3” value [1] was “increase”. For the same compound, the bcl-X isoform pattern (bcl-X isoforms; camptothecin 1 μg/ml) was “induces the appearance of a new bcl-X isoform” and the IC50 ([2]; HepG2 hepatocyte cells) was over 1 µg/mL.
With CCCCCCCCCCCCCC(=O)O[C@@H]1[C@@H](C)[C@@]2(O)[C@@H](C=C(CO)C[C@]3(O)C(=O)C(C)=C[C@@H]23)[C@@H]2C(C)(C)[C@]12OC(C)=O [PMA, phorbol 12-myristate 13-acetate] the “IC50 in cytotoxicity and apoptosis tests” value (HepG2 cells [3]; HepG2 cells, trypan blue, MTT, Cell Death ELISA, 18 h and 40 h, stated concentration well below measured IC50) was over 0.05 µg/mL.
For CCO [ethanol], the “fas receptor isoform pattern” value (FASR isoforms; ethanol 0.1 M) was “induces an increase in the long wild type form of the fas receptor at the expense of the shorter isoform”, the “RNA splicing signatures (A/B and B/A signals versus A/A)” value (HepG2 cells [4]) was “can induce a reprogramming of RNA splicing events” and the bcl-X isoform pattern (bcl-X isoforms; ethanol 0.1 M) was “induces the disappearance of bcl-x which is replaced by a shorter isoform”. The IC50 [2] was over 100 mM and the “cytotoxicity and DNA degradation” value (HepG2 cells [3]) was “signs of cytotoxicity and DNA degradation via internucleosomal fragmentation”.
